According to paper PMC6395926, “Mass Balance and Drug Interaction Potential of Intravenous Eravacycline Administered to Healthy Subjects” (Antimicrobial Agents and Chemotherapy, 2019):

Assays:
Assay type in all cases: in vivo, human
[1] = Mass balance study: plasma PK of eravacycline, TP-498 and TP-6208 (LC-MS); conditions: plasma, single i.v. dose of [14C]eravacycline
Text: (ii) Study design. This was a single-center, open-label study of a single i.v. dose of [^14C]eravacycline to assess the mass balance recovery and PK of eravacycline. The primary objectives were to determine mass balance recovery, determine routes and rates of excretion, provide metabolite profiling and structural identification, and assess the PK of radioactivity in plasma and whole blood. Subjects were screened for inclusion in the study, including a detailed medical history, physical examination, and laboratory evaluations, in the 28 days before dosing. Eligible subjects were admitted to the clinical study unit at approximately 21:00 on the evening prior to study drug administration (day −1) and remained on site until 240 h postdose for collection of urine, feces, and blood samples. After an overnight fast, each subject received 60 mg [^14C]eravacycline containing not more than 3.8 MBq (105 μCi) ^14C as a single i.v. infusion over 60 min.
(vi) Study assessments. PK parameters were determined for total radioactivity in plasma and whole blood. Eravacycline, TP-498, and TP-6208 concentrations in plasma were quantified using a validated assay with internal standards. The following PK parameters were determined: Cmax, Tmax, time from dosing before the first quantifiable concentration in a concentration versus time profile (Tlag), AUC0–t, AUC0–24, AUC0–∞, the percentage of AUC0–∞ extrapolated beyond the time of the last measurable concentration (AUC%extrap), the slope of the apparent terminal phase (lambda-z), the apparent terminal half-life (t1/2), the mean residence time estimated between time zero and infinity (MRT0-∞), the apparent volume of plasma cleared of analyte per unit time (CL), and the volume of distribution of analyte at steady state (Vss).
Plasma concentrations of eravacycline, TP-498, and TP-6208 were measured by liquid chromatography with tandem mass spectrometry (LC-MS). The LLOQ was 5 ng/ml for eravacycline, TP-498, and TP-6208. The calibration ranges for eravacycline, TP-498, and TP-6208 in human urine were 50 to 10,000 ng/ml, 50 to 1,000 ng/ml, and 20 to 1,000 ng/ml, respectively. The calibration ranges for eravacycline, TP-498, and TP-6208 in human plasma were 5 to 500 ng/ml.
(viii) Study analysis. Descriptive statistics (mean, median, standard deviation [SD], percent coefficient of variation [%CV], minimum, maximum, number, geometric mean, and geometric %CV) were calculated for all concentration data. Pharmacokinetic parameters were calculated using Phoenix WinNonlin v6.3 (Certera USA, Inc.).

[2] = Mass balance study: safety/tolerability
Protocol: Safety was assessed from adverse events (AEs), physical examinations, laboratory safety tests (hematology, coagulation, clinical chemistry, and urinalysis), vital signs, ECGs, and body weight.

[3] = Drug interaction study with itraconazole (CYP3A4 inhibitor): plasma PK of i.v. eravacycline and metabolites; conditions: for AUC(0-t) / Cmax / clearance / half-life / Vd: human, plasma, iv, mean ± SD, n = 10; for Vd: read-out: Vss
Protocol: Two single-center, open-label studies were conducted to evaluate the effects of itraconazole (CYP3A4 inhibitor) and rifampin (CYP3A4 inducer) on the pharmacokinetics of i.v. eravacycline in healthy subjects.
(ii) Study design. Each study included a 28-day screening period, a 13-day treatment period (19 days for rifampin), and an end-of-study visit 2 weeks after the last dose of study drug. Eravacycline was administered in the morning as a 1-mg/kg i.v. infusion over 60 min on day 1 with a second dose on day 10 (itraconazole study) or day 17 (rifampin study). For the itraconazole study, 200 mg oral itraconazole was administered q12h on day 8 and q24h on days 9 and 10. For the rifampin study, 600 mg oral rifampin was administered q24h from day 8 to day 17. All study treatments were administered in the fasting state.
(iii) Study assessments. Blood samples for PK analysis of eravacycline and its metabolites, TP-498, TP-6208, and TP-034, were collected predose and 1, 2, 4, 6, 8, 12, 24, 36, and 48 h after the start of the i.v. infusion on day 1 and day 10 (itraconazole) or day 1 and day 17 (rifampin). Safety assessments included AEs, clinical laboratory safety tests (hematology, serum chemistry, electrolytes, coagulation, urinalysis, and lipid profile), vital signs, physical examinations, and 12-lead ECG.
Concentrations of eravacycline, TP-498, and TP-6208 in human plasma samples were measured by LC-tandem MS after solid-phase extraction over a calibration range of 5.00 to 500 ng/ml. The LLOQ for eravacycline, TP-498, TP-6208, and TP-034 in human plasma was 5.00 ng/ml. Samples with eravacycline initial concentrations above the upper limit of quantification (500 ng/ml) were diluted appropriately with control blank human plasma and reanalyzed. There was no interference seen when human plasma was fortified with eravacycline, TP-498, TP-6208, and either itraconazole or rifampin.
(iv) Pharmacokinetic analysis. PK assessments included Cmax, Tmax, AUC0–24, AUC0–t, t1/2, CL, and Vss. Actual sampling time was used for PK calculations. PK parameters were derived by noncompartmental analysis. Descriptive statistics were calculated for analyte concentrations at each evaluation time point and for all quantitative PK parameters of eravacycline, TP-498, TP-6208, and TP-034 for day 1 and day 10 (day 17 for rifampin). The effect of itraconazole or rifampin on the PK profile of i.v. eravacycline was evaluated by comparing log-transformed PK parameters (Cmax and AUC0–t) associated with the administration of study drug on day 1 and day 10 (itraconazole) or day 1 and day 17 (rifampin) using paired t tests. The ratio and 90% confidence interval (CI) were presented after back transformation to the original scale. Pharmacokinetic variables were calculated using WinNonlin Professional.

[4] = human, iv, 60 mg, geometric mean (%CV), n = 2
[5] = eravacycline plus itraconazole (day 10) vs eravacycline alone (day 1), 1 mg/kg i.v.
[6] = day 1, eravacycline 1 mg/kg i.v. alone
[7] = day 10, eravacycline 1 mg/kg i.v. with itraconazole

clearance [1, 4]: 228 ± 13.8 mL/min | half-life [1, 4]: 18.2 ± 5 h | MRT inf ([1]; human, iv, 60 mg, geometric mean (%CV), n = 2, read-out: MRT0-∞): 15.9 ± 8.9 h | CL renal ([1]; human, iv, 60 mg, geometric mean (%CV), n = 5): 41.9 ± 16.6 mL/min | Tmax ([1]; male, human, iv, 60 mg): 0.55 to 1 h | AUC(0-inf) ([1]; male, human, iv, 60 mg, geometric mean (%CV), n = 2): 4380 ng·h/mL | Cmax ([1]; male, human, iv, 60 mg, geometric mean (%CV), n = 5, read-out: Cmax): 1100 ng/mL | Vd ([1]; male, human, iv, 60 mg, geometric mean (%CV), n = 2, read-out: Vss (volume of distribution)): 217 ± 4.9 L | time postdose plasma concentrations were quantifiable [1]: approximately 73 h | Ratio of geometric mean AUC0–t, day 10/day 1 [3, 5]: 134.3% | Ratio of geometric mean Cmax, day 10/day 1 [3, 5]: 107.9% | decrease of CL with itraconazole ([3]; eravacycline plus itraconazole day 10 vs day 1): about 30% | AUC(0-t) [3, 6]: 4320 ng·h/mL | Cmax [3, 6]: 1100 ng/mL | clearance [3, 6]: 3.79 ± 1.03 mL/min/kg | half-life [3, 6]: 14 ± 2.4 h | Vd [3, 6]: 3.42 ± 0.73 L/kg | AUC(0-t) [3, 7]: 5700 ng·h/mL | Cmax [3, 7]: 1160 ng/mL | clearance [3, 7]: 2.57 ± 0.5 mL/min/kg | half-life [3, 7]: 19 ± 3.6 h | Vd [3, 7]: 3.37 ± 0.56 L/kg
SMILES: CN(C)[C@@H]1C(O)=C(C(N)=O)C(=O)[C@@]2(O)C(O)=C3C(=O)c4c(O)c(NC(=O)CN5CCCC5)cc(F)c4C[C@H]3C[C@@H]12 [eravacycline]
serious or severe AEs [2]: No serious or severe AEs | number of subjects who experienced drug-related AEs ([2]; 5 male subjects): 3 | subjects who experienced at least 1 adverse effect (AE) ([2]; 5 male subjects, single i.v. dose): 80%
